The assay relates to P388 leukemia ip, CD2F1 mice, survival T/C. The assay is described as follows: NCI In Vivo Anticancer Drug Screen. Data for tumor model P388 Leukemia (intraperitoneal) in CD2F1 (CDF1) mice. The settings on record: endpoint: median survival time, higher = longer survival. The method, boiled down: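 Mice carrying the transplanted tumor received test compound or vehicle. Survival was recorded in each group, and the value is the treated-group measurement divided by that of the vehicle-treated control group.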

The mark [1] stands for this setting: dose: 100.0 mg/kg/injection, schedule: Q04DX003 (ip), vehicle: saline with Tween-80.
The mark [2] stands for this setting: dose: 60.0 mg/kg/injection, schedule: Q01DX005 (ip), vehicle: saline with Tween-80.
[3] abbreviates: dose: 120.0 mg/kg/injection, schedule: Q01DX005 (ip), vehicle: saline with Tween-80.
Setting [4] is: dose: 240.0 mg/kg/injection, schedule: Q01DX005 (ip), vehicle: saline with Tween-80.
[5] abbreviates: dose: 12.5 mg/kg/injection, schedule: Q01DX009 (ip), vehicle: Klucel (hydroxypropylcellulose) (HPC).
Where [6] appears, read: dose: 25.0 mg/kg/injection, schedule: Q01DX009 (ip), vehicle: Klucel (hydroxypropylcellulose) (HPC).
The mark [7] stands for this setting: dose: 50.0 mg/kg/injection, schedule: Q01DX009 (ip), vehicle: Klucel (hydroxypropylcellulose) (HPC).
Where [8] appears, read: dose: 100.0 mg/kg/injection, schedule: Q01DX009 (ip), vehicle: Klucel (hydroxypropylcellulose) (HPC).
Setting [9] is: dose: 50.0 mg/kg/injection, schedule: Q01DX005 (ip), vehicle: Klucel (hydroxypropylcellulose) (HPC).
Where [10] appears, read: dose: 100.0 mg/kg/injection, schedule: Q01DX005 (ip), vehicle: Klucel (hydroxypropylcellulose) (HPC).
Setting [11] is: dose: 200.0 mg/kg/injection, schedule: Q01DX005 (ip), vehicle: Klucel (hydroxypropylcellulose) (HPC).
[12] abbreviates: dose: 50.0 mg/kg/injection, schedule: Q01DX009 (ip), vehicle: saline with Tween-80.
The mark [13] stands for this setting: dose: 100.0 mg/kg/injection, schedule: Q01DX009 (ip), vehicle: saline with Tween-80.
The mark [14] stands for this setting: dose: 100.0 mg/kg/injection, schedule: Q04DX002 (ip), vehicle: Klucel (hydroxypropylcellulose) (HPC).
The mark [15] stands for this setting: dose: 200.0 mg/kg/injection, schedule: Q04DX002 (ip), vehicle: Klucel (hydroxypropylcellulose) (HPC).
Where [16] appears, read: dose: 400.0 mg/kg/injection, schedule: Q04DX002 (ip), vehicle: Klucel (hydroxypropylcellulose) (HPC).

“And” between values parts separate entries of the source, which are not always exact repeats. Equal values may be shown once. Inconclusive results and toxic doses are left out.

As to `CN(C)c1ccc(C(O)(Cc2cnc3ccccc3c2)c2ccc(N(C)C)cc2)cc1`, the T/C is, setting by setting: under setting [1], 95 % of control; (dose: 200.0 mg/kg/injection, schedule: Q04DX003 (ip), vehicle: saline with Tween-80) 103 % of control; (dose: 400.0 mg/kg/injection, schedule: Q04DX003 (ip), vehicle: saline with Tween-80) 99 % of control.
On to `CNC(=O)OCc1c(COC(=O)NC)c(-c2ccc(S(=O)(=O)c3ccccc3)cc2)n(C)c1C`, for which the T/C (dose: 12.5 mg/kg/injection, schedule: Q01DX009 (ip), vehicle: distilled water + Tween-80) is 154 % of control; the T/C (dose: 40.0 mg/kg/injection, schedule: Q01DX009 (ip), vehicle: distilled water + Tween-80) was 153 % of control; the T/C (dose: 50.0 mg/kg/injection, schedule: Q01DX009 (ip), vehicle: distilled water + Tween-80) was 100 % of control; the T/C (dose: 80.0 mg/kg/injection, schedule: Q01DX009 (ip), vehicle: distilled water + Tween-80) was 153 % of control.
On to `C=C(C1OC2OC(C)(C)OC2C1OC)P(=O)(OC(C)C)OC(C)C` (stereo unspecified), for which the T/C is, setting by setting: (dose: 100.0 mg/kg/injection, schedule: Q04DX002 (ip), vehicle: saline with Tween-80) 98 % of control; (dose: 200.0 mg/kg/injection, schedule: Q04DX002 (ip), vehicle: saline with Tween-80) 98 % of control.
`O=S(=O)(c1ccc(F)cc1)N(CCCCCN(S(=O)(=O)c1ccc(F)cc1)S(=O)(=O)c1ccc(F)cc1)S(=O)(=O)c1ccc(F)cc1`: the T/C runs as follows: under setting [2], 97 % of control; under setting [3], 91 % of control; under setting [4], 90 % of control.
Consider `Nc1nc(=S)ss1`, for which the T/C was 116 % of control and 98 % of control under setting [5]; 107 % of control and 111 % of control under setting [6]; 109 % of control and 119 % of control under setting [7]; 109 % of control under setting [8].
As for `O=C(O)CNC(=O)Cc1cccc2ccccc12`, the T/C is 102 % of control under setting [9], 98 % of control under setting [10] and 95 % of control under setting [11].
`NNC(=O)CNC(=O)Nc1n[nH]c(=S)s1`: the T/C was 101 % of control under setting [12] and 95 % of control under setting [13].
`CCC(C)Nc1c(N)cc(C(F)(F)F)cc1N` (stereo unspecified): the T/C was 98 % of control (dose: 60.0 mg/kg/injection, schedule: Q01DX005 (ip), vehicle: Klucel (hydroxypropylcellulose) (HPC)); 97 % of control (dose: 120.0 mg/kg/injection, schedule: Q01DX005 (ip), vehicle: Klucel (hydroxypropylcellulose) (HPC)); 99 % of control (dose: 240.0 mg/kg/injection, schedule: Q01DX005 (ip), vehicle: Klucel (hydroxypropylcellulose) (HPC)).
Turning to `O=C(CCl)N1CCN(C/C=C/c2ccccc2)CC1`, the T/C is 103 % of control (dose: 60.0 mg/kg/injection, schedule: Q01DX005 (ip), vehicle: saline) and 105 % of control (dose: 120.0 mg/kg/injection, schedule: Q01DX005 (ip), vehicle: saline).
Regarding `Cn1c(C(=O)N/N=C/C23OC(C)(C)OC2OCC2OC(C)(C)OC23)cc2cc(OCc3ccccc3)ccc21` (stereo unspecified), the T/C under setting [9] was 92 % of control, the T/C under setting [10] is 101 % of control and the T/C under setting [11] was 90 % of control.
Turning to `N#Cc1c2c(c(Cl)n3c1nc1ccccc13)CCC2`, the T/C is, setting by setting: under setting [2], 100 % of control; under setting [3], 91 % of control; under setting [4], 91 % of control.
In the case of `CC(C)(C#CC(C)(C)OC(=O)Nc1ccccc1)OC(=O)Nc1ccccc1`, the T/C by setting is: (dose: 100.0 mg/kg/injection, schedule: Q01DX009 (ip), vehicle: suspension in saline) 95 % of control; (dose: 200.0 mg/kg/injection, schedule: Q01DX009 (ip), vehicle: suspension in saline) 97 % of control; (dose: 400.0 mg/kg/injection, schedule: Q01DX009 (ip), vehicle: suspension in saline) 107 % of control.
`COC(=O)/C(CC(=O)O)=C(\c1ccc2c(c1)OCO2)c1cc(OC)c(OC)c(OC)c1`: the T/C under setting [14] was 100 % of control, the T/C under setting [15] is 103 % of control and the T/C under setting [16] was 100 % of control.
With `O=C1CCCCCCCCCCCCCCCO1`, the T/C runs as follows: (dose: 6.25 mg/kg/injection, schedule: Q01DX009 (ip), vehicle: Klucel (hydroxypropylcellulose) (HPC)) 103 % of control; under setting [5], 98 % of control and 115 % of control; under setting [6], 104 % of control and 97 % of control; under setting [7], 100 % of control and 120 % of control and 91 % of control; under setting [8], 109 % of control; (dose: 200.0 mg/kg/injection, schedule: Q01DX009 (ip), vehicle: Klucel (hydroxypropylcellulose) (HPC)) 111 % of control. Besides, the T/C (dose: 400.0 mg/kg/injection, schedule: Q01DX009 (ip), vehicle: Klucel (hydroxypropylcellulose) (HPC)) is 109 % of control.
`COC(=O)C1=C/C=C\CN(C=O)/C=C\1C(=O)OC`: the T/C by setting is: (dose: 100.0 mg/kg/injection, schedule: Q01DX001 (ip), vehicle: alcohol) 101 % of control; (dose: 200.0 mg/kg/injection, schedule: Q01DX001 (ip), vehicle: alcohol) 92 % of control; (dose: 400.0 mg/kg/injection, schedule: Q01DX001 (ip), vehicle: alcohol) 101 % of control.
Take `COc1cccc(/C=N/C(=S)NC2(C)C3CCC(C3)C2(C)C)c1O` (stereo unspecified): the T/C (dose: 12.5 mg/kg/injection, schedule: Q01DX009 (ip), vehicle: olive oil, sesame oil, peanut oil) is 105 % of control; the T/C (dose: 25.0 mg/kg/injection, schedule: Q01DX009 (ip), vehicle: olive oil, sesame oil, peanut oil) is 102 % of control; the T/C (dose: 50.0 mg/kg/injection, schedule: Q01DX009 (ip), vehicle: olive oil, sesame oil, peanut oil) was 99 % of control; the T/C (dose: 100.0 mg/kg/injection, schedule: Q01DX009 (ip), vehicle: olive oil, sesame oil, peanut oil) is 97 % of control; the T/C (dose: 200.0 mg/kg/injection, schedule: Q01DX009 (ip), vehicle: olive oil, sesame oil, peanut oil) is 94 % of control; the T/C (dose: 400.0 mg/kg/injection, schedule: Q01DX009 (ip), vehicle: olive oil, sesame oil, peanut oil) is 97 % of control.
Take `Cn1ncc2c(NCCc3ccccc3)ncnc21`: the T/C under setting [1] is 109 % of control.
With `Cn1c(=O)c2c(c3ccccc31)Oc1oc3ccc4ccccc4c3c(=O)c1C2`, the T/C reads like this: (dose: 12.5 mg/kg/injection, schedule: Q01DX009 (ip), vehicle: saline with Tween-80) 92 % of control; (dose: 25.0 mg/kg/injection, schedule: Q01DX009 (ip), vehicle: saline with Tween-80) 90 % of control.
Regarding `CC1CCC(C(C)C)/C(=N/NC(=O)c2cccnc2)C1` (stereo unspecified), the T/C runs as follows: (dose: 12.5 mg/kg/injection, schedule: Q01DX005 (ip), vehicle: Klucel (hydroxypropylcellulose) (HPC)) 100 % of control; (dose: 25.0 mg/kg/injection, schedule: Q01DX005 (ip), vehicle: Klucel (hydroxypropylcellulose) (HPC)) 104 % of control; under setting [9], 100 % of control.
`NC(=O)c1cccn(-c2ccccc2)c1=S`: the T/C runs as follows: under setting [9], 89 % of control; under setting [10], 105 % of control; under setting [11], 105 % of control.
As to `O=C(O)CCc1nc(-c2ccccc2-n2cccc2)no1`, the T/C under setting [12] is 96 % of control and the T/C under setting [13] is 102 % of control.
As to `O=C(O)c1ccnc2nc[nH]c12`, the T/C runs as follows: under setting [14], 100 % of control; under setting [15], 106 % of control; under setting [16], 100 % of control.
`Cc1oc2c(c(=O)c1C)C1CCC(C2)N1C` (stereo unspecified): the T/C is, setting by setting: under setting [9], 106 % of control; under setting [10], 97 % of control.
As to `COC(=O)C1=CC(=O)N2CCN=C2S1`, the T/C was 103 % of control (dose: 50.0 mg/kg/injection, schedule: Q01DX005 (ip), vehicle: saline with Tween-80); 100 % of control (dose: 100.0 mg/kg/injection, schedule: Q01DX005 (ip), vehicle: saline with Tween-80); 90 % of control (dose: 200.0 mg/kg/injection, schedule: Q01DX005 (ip), vehicle: saline with Tween-80).
For `CC(C)(C)C(=O)C=C(C(F)(F)F)C(F)(F)F`, the T/C (dose: 6.25 mg/kg/injection, schedule: Q01DX009 (ip), vehicle: saline) is 91 % of control; the T/C (dose: 12.5 mg/kg/injection, schedule: Q01DX009 (ip), vehicle: saline) was 86 % of control; the T/C (dose: 25.0 mg/kg/injection, schedule: Q01DX009 (ip), vehicle: saline) was 113 % of control.
